Results: patent publication US8461362B2, “Protein phosphatase 2A-activating agents” (The Ohio State University Research Foundation, priority 2009, dated 2013)
Residues, ends and D or L forms follow the SMILES beside them. *: point of attachment. Cbz = O=C(OCc1ccccc1)*

Tests used:
Sp1 = Sp1 protein expression, stability and ubiquitination in LNCaP cells; assay type: cell-based; conditions: proteasome inhibition, LNCaP cells treated with TS-1
Protocol: (§1) Cells cultured in T25 flasks were collected by scraping, and cell pellets were washed once with PBS. Cells were lysed in a lysis buffer consisting of 1% SDS, 10 mM EDTA and 50 mM Tris-HCl, pH 8.1, in the presence of a commercial protease inhibitor cocktail from Aldrich-Sigma (2 mM AEBSF, 1 mM EDTA, 130 μM bestatin, 14 μM E-64, 1 μM leupeptin, and 0.3 μM aprotinin). Following a 10-sec sonication using 20% output in a Virsonic 300 sonicator (Virtis, Gardiner N.Y.) to disrupt cellular organelles and genomic DNA, cell lysates were centrifuged at 15,200×g for 15 minutes. One μL of the suspension was used for protein determination using a colorimetric BCA assay (Pierce, Rockford, Ill.), and to the remaining solution was added an equivalent volume of 2×SDS-polyacrylamide gel electrophoresis sample loading buffer (62.5 mM Tris-HCl, pH 6.8, 4% SDS, 5% β-mercaptoethanol, 20% glycerol, and 0.1% bromophenol blue), and boiled for 5 min. Equal amounts of proteins were resolved in 8% SDS-polyacrylamide gels, and transferred to nitrocellulose membranes using a semidry transfer cell. The transblotted membrane was washed twice with Tris-buffered saline containing 0.1% Tween 20 (TBST). After blocking with TBST containing 5% nonfat milk for 40 min, the membrane was incubated with the appropriate primary antibody in TBST-1% nonfat milk at 4° C. overnight. All primary antibodies were diluted 1:1000 in 1% nonfat milk-containing TBST. After treatment with the primary antibody, the membrane was washed three times with TBST for a total of 15 min, followed by incubation with goat anti-rabbit or anti-mouse Immunoglobulin G (IgG)-horseradish peroxidase conjugates (diluted 1:2000) for 1 h at room temperature and four washes with TBST for a total of 1 h. The immunoblots were visualized by enhanced chemiluminescence.
LNCaP cells were co-transfected with 5 μg each of Flag-Sp1 and HA-ubiquitin plasmids in an Amaxa Nucleofector using a LNCaP-specific nucleofector kit. These transiently transfected cells were seeded in 6-well plates at 2×10^5 per well. After 48-h incubation, cells were exposed to VES or TS-1 at the indicated concentration for 48 h, and lysed by a radioimmunoprecipitation assay lysis buffer (Santa Cruz Biotechnology) in the presence of a freshly prepared cocktail of phosphatase and protease inhibitors (2 mmol/L AEBSF, 1 mM EDTA, 130 μM bestatin, 14 μM E-64, 1 μM leupeptin, and 0.3 μM aprotinin, 2 mM imidazole, 1 mM sodium fluoride, 1.15 mM sodium molybdate, 1 mM sodium orthovanadate, and 4 mmol/L sodium tartrate dihydrate). After centrifugation at 13,000×g for 15 min, the supernatants were collected, preincubated with protein A/G agarose (Santa Cruz Biotechnology) for 15 min, and centrifuged at 1,000×g for 5 min. Supernatant (20 μL) were stored at 4° C. to be used as input, whereas the remaining supernatant was exposed to 4 μg of anti-Sp1 antibodies at 4° C. for 12 h, followed by protein A/G agarose beads at 4° C. for another 2 h. After brief centrifugation, immunoprecipitates were collected, washed with the aforementioned lysis buffer four times, suspended in 2×SDS sample buffer, and subjected to Western blot analysis with antibodies against HA and Flag.

[1] = system: androgen-independent prostate cancer; conditions: minimally pretreated patients with androgen-independent prostate cancer; cited from earlier work
[2] = system: AR and its target gene product PSA in LNCaP cells; experiment: Western blot of AR and PSA expression in LNCaP cells; assay type: cell-based; conditions: PP2A inhibitor co-treatment with VES or TS-1
Protocol: as §1

SMILES | protection of Sp1 from TS-1-facilitated ablation (Sp1) | also measured
CC(C)C[C@@H](C=O)NC(=O)[C@H](CC(C)C)NC(=O)[C@H](CC(C)C)NC(=O)OCc1ccccc1 [MG-132] (Cbz-Leu-Leu-Leu-aldehyde) | protected Sp1 from TS-1-facilitated ablation | –
Cn1cncc1[C@@](N)(c1ccc(Cl)cc1)c1ccc2c(c1)c(-c1cccc(Cl)c1)cc(=O)n2C [R115777] | – | anti-tumor activity in patients [1]: little anti-tumor activity
CC[C@H](C)[C@H](NC(=O)[C@H]([C@@H](C)CC)N(C)C(C)=O)C(=O)N[C@H](C(=O)N[C@@H](CC(C)C)C(=O)[C@@]1(C)CO1)[C@@H](C)O [epoxomicin] | protected Sp1 from TS-1-facilitated ablation | –
C=C1[C@@H](O)[C@@H]2O[C@]3(CC[C@H](/C=C/[C@@H](C)[C@@H]4CC(C)=C[C@@]5(O[C@H](C[C@@](C)(O)C(=O)O)CC[C@H]5O)O4)O3)CC[C@H]2O[C@@H]1[C@@H](O)C[C@H](C)[C@H]1O[C@@]2(CCCCO2)CC[C@H]1C [okadaic acid] | – | protection from VES/TS-1 suppression of phosphorylation or expression of JNK, Sp1 and AR [2]: could protect cells from the suppressive effect
